These results are taken from ChEMBL document CHEMBL1201862, “PubChem BioAssay data set” (2004).

Some test systems named below: U-251; RXF 393; COLO 205; OVCAR-5; HOP-18; Malme-3M; NCI-H23; EKVX; NCI-H226; M14; DLD-1; SNB-78; KM-20L2; SF-539; HL-60; SNB-75; PC-3; BT-549; MDA-N; MDA-MB-231.
Holding throughout (test): inhibition of tumour cell growth, NCI panel, 48 h

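In this assay, cells in 96-well plates receive the compound at five concentrations for 48 hours. Endpoints are linearly interpolated between the surrounding concentrations. At the GI50, growth is halved.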 Calls of active or inactive are those of the source. Cut-off read from the data, not from the text of the source: active = GI50 up to about 1.1 µM and inactive = higher.

As to `O=c1[nH]cnc(NC2C=C(CO)C(O)C2O)c1[N+](=O)[O-]` (centres undefined), the GI50 in the experiment with U-251 is > 63.5 µM (inactive); in the experiment on RXF 393, > 100 µM (inactive); with COLO 205 it was > 62.7 µM (inactive); in the experiment with OVCAR-5, > 100 µM (inactive); in the experiment with HOP-18, > 100 µM (inactive); with Malme-3M it was > 100 µM (inactive). Moreover, the GI50 in the experiment with NCI-H23 was > 100 µM (inactive); with EKVX, > 100 µM (inactive); in the experiment with NCI-H226, > 100 µM (inactive); in the experiment on M14, > 100 µM (inactive); in the experiment with DLD-1, > 58.6 µM (inactive); in the experiment on SNB-78 it was > 100 µM (inactive). In addition, the GI50 in the experiment with KM-20L2 is > 100 µM (inactive); in the experiment with SF-539, > 100 µM (inactive); in the experiment on HL-60, > 37.2 µM (inactive); in the experiment on SNB-75, > 100 µM (inactive).

As to `N=c1nc(N)c2cc3c(N)nc(=N)c3cc12`, the GI50 in the experiment with U-251 is 11.5 µM (inactive); in the experiment on RXF 393, 6.32 µM (inactive); with COLO 205 it was > 91.8 µM (inactive); in the experiment with OVCAR-5, 19.1 µM (inactive); in the experiment with HOP-18, 8.97 µM (inactive); with Malme-3M it was 2.95 µM (inactive). Besides, the GI50 with NCI-H23 is 35.3 µM (inactive); in the experiment with PC-3 it was 36.1 µM (inactive); in the experiment on EKVX, 25.2 µM (inactive); in the experiment with NCI-H226 it was 13 µM (inactive); with M14, 2.47 µM (inactive); with BT-549 it was 3.99 µM (inactive). In addition, the GI50 in the experiment with DLD-1 is > 73.5 µM (inactive); with MDA-N it was 2.05 µM (inactive); in the experiment with SNB-78 it was 9.35 µM (inactive); in the experiment on KM-20L2, > 100 µM (inactive); in the experiment on SF-539 it was 4.85 µM (inactive); in the experiment on HL-60 it was 2.02 µM (inactive). The GI50 with SNB-75 is 8.09 µM (inactive); in the experiment on MDA-MB-231, 2.69 µM (inactive).

In the case of `COc1cc(/C=C/C(=O)Oc2ccccc2)ccc1C(=O)O/C=C/c1ccccc1`, the GI50 in the experiment with U-251, with RXF 393, in the experiment on COLO 205, in the experiment on OVCAR-5, in the experiment with HOP-18 and with Malme-3M was > 100 µM (inactive) each time. Also, the GI50 with NCI-H23, in the experiment on PC-3, in the experiment on EKVX, with NCI-H226, in the experiment on M14 and in the experiment with BT-549 was > 100 µM (inactive) each time. Moreover, the GI50 in the experiment on DLD-1, in the experiment with MDA-N, in the experiment with SNB-78, with KM-20L2, in the experiment on SF-539 and in the experiment on HL-60 was > 100 µM (inactive) each time. The GI50 in the experiment with SNB-75 and in the experiment on MDA-MB-231 was > 100 µM (inactive) in each case.

`CCCCNCCCNCCCNC(=O)c1csc(-c2csc(CCNC(=O)C(NC(=O)C(C)C(O)C(C)NC(=O)C(NC(=O)c3nc(C(CC(N)=O)NCC(N)C(N)=O)nc(N)c3C)C(OC3OC(CO)C(O)C(O)C3OC3OC(CO)C(O)C(OC(N)=O)C3O)c3c[nH]cn3)C(C)O)n2)n1` (centres undefined): the GI50 is 0.489 µM (active) with U-251; 9.44 µM (inactive) in the experiment with COLO 205; 2.3 µM (inactive) in the experiment with OVCAR-5; 37.7 µM (inactive) in the experiment with HOP-18; 0.294 µM (active) in the experiment on Malme-3M; 0.083 µM (active) in the experiment on NCI-H23. The GI50 was 23.6 µM (inactive) in the experiment on PC-3; 14 µM (inactive) in the experiment on EKVX; 0.175 µM (active) in the experiment with NCI-H226; 1.43 µM (inactive) in the experiment with M14; > 50 µM (inactive) in the experiment on BT-549; 20.9 µM (inactive) with DLD-1. The GI50 in the experiment on SNB-78 is > 73.3 µM (inactive); in the experiment with KM-20L2, 61.5 µM (inactive); in the experiment on SF-539, < 0.01 µM (active); in the experiment on HL-60, 14.9 µM (inactive); in the experiment with SNB-75, 0.0589 µM (active); in the experiment on MDA-MB-231, 30.3 µM (inactive).
